Read-outs that look alike come from different tables or passages of the source.
How the values were obtained:
Phakopsora pachyrhizi = experiment: Example B5: preventative activity against Phakopsora pachyrhizi (soybean rust), whole soybean plants sprayed, leaf disks inoculated; format: in vivo; details: for inhibition at 22.5 g/ha / inhibition at 45 g/ha / inhibition at 90 g/ha / inhibition at 225 g/ha / inhibition at 450 g/ha / inhibition at 2.25 g/ha / inhibition at 4.5 g/ha / inhibition at 18 g/ha: Phakopsora pachyrhizi, foliar
Method: Whole soybean plants are treated with the recited active ingredients 4 weeks after planting. 1 day after spraying leaf disks are cut from the first trifoliate leaf. Five repetitions at each rate are conducted. The leaf disks are inoculated with Phakopsora pachyrhizi (Asian soybean rust) one day after treatment.
Evaluation of the leaf disks is conducted 11 to 14 days after inoculation and the activity is derived from the relation of the treated vs untreated, infested check (100=no disease, no damage to the leaf, 0=high infestation, leaf damaged heavily). The rates of the active ingredients used are given in the tables as g active ingredient (a.i.)/ha.

Septoria glycines = experiment: Example B2: mixtures, preventative activity against Septoria glycines (brown spot), liquid culture; format: cell-based; details: component B alone
From the text: (§1) This occurs whenever the action of an active ingredient combination is greater than the sum of the actions of the individual components. The action to be expected E for a given active ingredient combination obeys the so-called COLBY formula and can be calculated as follows (COLBY, S. R. “Calculating synergistic and antagonistic responses of herbicide combination”. Weeds, Vol. 15, pages 20-22; 1967):
(§2) If the action actually observed (O) is greater than the expected action (E), then the action of the combination is super-additive, i.e. there is a synergistic effect. In mathematical terms, synergism corresponds to a positive value for the difference of (O-E). In the case of purely complementary addition of activities (expected activity), said difference (O-E) is zero. A negative value of said difference (O-E) signals a loss of activity compared to the expected activity.
Conidia of the fungus harvested from a fresh culture grown on artificial media, were directly mixed into nutrient broth (PDB potato dextrose broth). A DMSO solution of the test compounds was placed into a microtiter plate (96-well format) and the nutrient broth containing the fungal spores was added to it.
(§3) Fungicidal activity was evaluated on a 100-0 scale (100=no disease growth; 0=well completely covered by mycelium).

Septoria tritici = experiment: Example B3: mixtures, preventative activity against Septoria tritici (leaf blotch), liquid culture; format: cell-based; details: component B alone
From the text: as §1, §2
(§4) Conidia of the fungus from cryogenic storage were directly mixed into nutrient broth (PDB potato dextrose broth). A DMSO solution of the test compounds was placed into a microtiter plate (96-well format) and the nutrient broth containing the fungal spores was added to it.
as §3

[1] = system: Glomerella lagenarium syn. Colletotrichum lagenarium; experiment: Example B1: mixtures, preventative activity against Glomerella lagenarium syn. Colletotrichum lagenarium, liquid culture; format: cell-based; details: component B alone; for inhibition at 0.1 ppm / inhibition at 0.3 ppm: Colletotrichum orbiculare, read-out: Activity (%) B
From the text: as §1, §2, §4, §3

[2] = active ingredient alone, 22.5 g/ha, read-out: Observed Activity (%) (% of untreated)
[3] = active ingredient alone, 45 g/ha, read-out: Observed Activity (%) (% of untreated)
[4] = active ingredient alone, 90 g/ha, read-out: Observed Activity (%) (% of untreated)
[5] = applied alone, 22.5 g/ha, read-out: Observed Activity (% of untreated) against Phakopsora pachyrhizi
[6] = applied alone, 45 g/ha, read-out: Observed Activity (% of untreated) against Phakopsora pachyrhizi
[7] = applied alone, 90 g/ha, read-out: Observed Activity (% of untreated) against Phakopsora pachyrhizi
[8] = read-out: Observed Activity (% of untreated) against Phakopsora pachyrhizi
[9] = read-out: Observed Activity (%) (% of untreated) against Phakopsora pachyrhizi
[10] = Septoria glycines, 0.1 ppm, 100-0 scale, read-out: Activity (%) B
[11] = Septoria glycines, 0.3 ppm, 100-0 scale
[12] = Zymoseptoria tritici, 0.1 ppm, 100-0 scale, read-out: Activity (%) B

CC1COC(Cn2cncn2)(c2ccc(Oc3ccc(Cl)cc3)cc2Cl)O1 (centres unmarked) [Difenoconazole]
inhibition at 22.5 g/ha (Phakopsora pachyrhizi; [2]): 3%
inhibition at 45 g/ha (Phakopsora pachyrhizi; [3]): 10%
inhibition at 90 g/ha (Phakopsora pachyrhizi; [4]): 24%
inhibition at 22.5 g/ha (Phakopsora pachyrhizi; [5]): 3%
inhibition at 45 g/ha (Phakopsora pachyrhizi; [6]): 10%
inhibition at 90 g/ha (Phakopsora pachyrhizi; [7]): 24%

CC(Cc1ccc(C(C)(C)C)cc1)CN1CCCCC1 (centres unmarked) [Fenpropidin]
inhibition at 225 g/ha (Phakopsora pachyrhizi; applied alone, 225 g/ha, read-out: Observed Activity (% of untreated) against Phakopsora pachyrhizi): 72%
inhibition at 225 g/ha (Phakopsora pachyrhizi; applied alone, 225 g/ha, read-out: Observed Activity (%) (% of untreated) against Phakopsora pachyrhizi): 72%
inhibition at 450 g/ha (Phakopsora pachyrhizi; applied alone, 450 g/ha, read-out: Observed Activity (% of untreated) against Phakopsora pachyrhizi): 77%
inhibition at 450 g/ha (Phakopsora pachyrhizi; applied alone, 450 g/ha, read-out: Observed Activity (%) (% of untreated) against Phakopsora pachyrhizi): 77%

O=C(O)CNCP(=O)(O)O [Glyphosate]
inhibition at 45 g/ha (Phakopsora pachyrhizi; [8]): 1%
inhibition at 90 g/ha (Phakopsora pachyrhizi; [8]): 0%
inhibition at 45 g/ha (Phakopsora pachyrhizi; [9]): 1%
inhibition at 90 g/ha (Phakopsora pachyrhizi; [9]): 0%

CC(C)c1ccc(Cl)cc1CN(C(=O)c1c(C(F)F)nn(C)c1F)C1CC1 [Isoflucypram]
Observed Activity (% of untreated) against Phakopsora pachyrhizi (Phakopsora pachyrhizi; applied alone, 2.25 g/ha): 2%
Observed Activity (% of untreated) against Phakopsora pachyrhizi (Phakopsora pachyrhizi; applied alone, 4.5 g/ha): 1%
Observed Activity (% of untreated) against Phakopsora pachyrhizi (Phakopsora pachyrhizi; applied alone, 9 g/ha): 0%

O=C(Nc1ccccc1F)c1ccc(-c2noc(C(F)(F)F)n2)cc1 [N-(2-fluorophenyl)-4-[5-(trifluoromethyl)-1,2,4-oxadiazol-3-yl]benzamide]
inhibition at 10 ppm (Septoria glycines; Septoria glycines): 0%
inhibition at 10 ppm (Septoria glycines; Septoria glycines, 100-0 scale): 0%
inhibition at 20 ppm (Septoria glycines; Septoria glycines): 0%
inhibition at 20 ppm (Septoria glycines; Septoria glycines, 100-0 scale): 0%
inhibition at 10 ppm (Septoria tritici; Zymoseptoria tritici, 72 h, 10 ppm): 0%
inhibition at 20 ppm (Septoria tritici; Zymoseptoria tritici, 72 h, 20 ppm): 0%

CCC(=O)Oc1c(OC)ccnc1C(=O)N[C@@H](C)C(=O)O[C@@H](C)[C@@H](C)c1ccccc1C [[(1S,2S)-1-methyl-2-(o-tolyl)propyl](2S)-2-[(4-methoxy-3-propanoyloxy-pyridine-2-carbonyl)amino]propanoate, reference compound]
inhibition at 0.03 ppm (Septoria glycines; Septoria glycines, 0.03 ppm, 100-0 scale, read-out: Activity (%) B): 0%
inhibition at 0.06 ppm (Septoria glycines; Septoria glycines, 0.06 ppm, 100-0 scale): 0%
inhibition at 0.03 ppm (Septoria tritici; Zymoseptoria tritici, 72 h, 0.03 ppm, 72 hrs, read-out: Activity (%) B): 50%
inhibition at 0.06 ppm (Septoria tritici; Zymoseptoria tritici, 72 h, 0.06 ppm): 70%

COc1ccnc(C(=O)N[C@@H](C)C(=O)O[C@@H](C)[C@H](c2ccc(F)cc2C)C(C)C)c1OCOC(C)=O [[(1S,2S)-2-(4-fluoro-2-methyl-phenyl)-1,3-dimethyl-butyl](2S)-2-[[3-(acetoxymethoxy)-4-methoxy-pyridine-2-carbonyl]amino]propanoate]
inhibition at 0.1 ppm ([1]; 0.1 ppm): 20%
inhibition at 0.3 ppm ([1]; 0.3 ppm): 70%

CO/C=C(/C(=O)OC)c1ccccc1Oc1cc(Oc2ccccc2C#N)ncn1 [azoxystrobin, reference compound]
Observed Activity (%) (% of untreated) (Phakopsora pachyrhizi; active ingredient alone, 2.25 g/ha): 0%
Observed Activity (%) (% of untreated) (Phakopsora pachyrhizi; active ingredient alone, 4.5 g/ha): 15%
Observed Activity (%) (% of untreated) (Phakopsora pachyrhizi; active ingredient alone, 9 g/ha): 23%
Observed Activity (%) (% of untreated) (Phakopsora pachyrhizi; active ingredient alone, 18 g/ha): 9%
Observed Activity (% of untreated) against Phakopsora pachyrhizi (Phakopsora pachyrhizi; applied alone, 2.25 g/ha): 0%
Observed Activity (% of untreated) against Phakopsora pachyrhizi (Phakopsora pachyrhizi; applied alone, 4.5 g/ha): 15%
Observed Activity (% of untreated) against Phakopsora pachyrhizi (Phakopsora pachyrhizi; applied alone, 9 g/ha): 23%
Observed Activity (% of untreated) against Phakopsora pachyrhizi (Phakopsora pachyrhizi; applied alone, 18 g/ha): 9%

[Cl-].[Cu+2].[Cu+2].[OH-].[OH-].[OH-] [copper oxychloride, reference compound]
Activity (%) B ([1]; 0.1 ppm): 0%
Activity (%) B ([1]; 0.3 ppm): 0%
Observed Activity (% of untreated) against Phakopsora pachyrhizi (Phakopsora pachyrhizi; applied alone, 22.5 g/ha): 2%
Observed Activity (% of untreated) against Phakopsora pachyrhizi (Phakopsora pachyrhizi; applied alone, 45 g/ha): 5%

CC(C1CC1)C(O)(Cn1cncn1)c1ccc(Cl)cc1 (centres unmarked) [cyproconazole, reference compound]
inhibition at 22.5 g/ha (Phakopsora pachyrhizi; [2]): 15%
inhibition at 45 g/ha (Phakopsora pachyrhizi; [3]): 69%
inhibition at 90 g/ha (Phakopsora pachyrhizi; [4]): 84%
inhibition at 22.5 g/ha (Phakopsora pachyrhizi; [5]): 15%
inhibition at 45 g/ha (Phakopsora pachyrhizi; [6]): 69%
inhibition at 90 g/ha (Phakopsora pachyrhizi; [7]): 84%
inhibition at 0.1 ppm (Septoria glycines; [10]): 50%
inhibition at 0.3 ppm (Septoria glycines; Septoria glycines, 0.3 ppm): 70%
inhibition at 0.3 ppm (Septoria glycines; [11]): 70%
inhibition at 0.1 ppm (Septoria tritici; Zymoseptoria tritici, 72 h, 0.1 ppm, 72 hrs, 100=no disease growth, read-out: Activity (%) B): 20%
inhibition at 0.3 ppm (Septoria tritici; Zymoseptoria tritici, 72 h, 0.3 ppm, 72 hrs, read-out: Activity (%) B): 50%
inhibition at 0.1 ppm (Septoria tritici; [12]): 20%

CC(Cc1ccc(C(C)(C)C)cc1)CN1CCCCC1 (centres unmarked) [fenpropidin]
inhibition at 0.1 ppm (Septoria tritici; [12]): 0%
inhibition at 0.3 ppm (Septoria tritici; Zymoseptoria tritici, 0.3 ppm, 100-0 scale, read-out: Activity (%) B): 0%

CC(Cc1ccc(C(C)(C)C)cc1)CN1C[C@@H](C)O[C@@H](C)C1 (some centres unmarked) [fenpropimorph]
inhibition at 0.1 ppm (Septoria glycines; [10]): 20%
inhibition at 0.1 ppm (Septoria glycines; Septoria glycines, 0.1 ppm, read-out: Activity (%) B): 20%
inhibition at 0.3 ppm (Septoria glycines; Septoria glycines, 0.3 ppm): 50%
inhibition at 0.3 ppm (Septoria glycines; [11]): 50%

OC(Cn1cncn1)(c1ccc(F)cc1)c1ccccc1F (centres unmarked) [flutriafol]
Activity (%) B (Septoria glycines; 0.1 ppm): 20%
Activity (%) B (Septoria glycines; 0.3 ppm): 70%

Cn1cc(C(=O)Nc2ccccc2-c2cc(F)c(F)c(F)c2)c(C(F)F)n1 [fluxapyroxad, reference compound]
Activity (%) B ([1]; 0.1 ppm): 0%
Activity (%) B ([1]; 0.3 ppm): 0%
Observed Activity (% of untreated) against Phakopsora pachyrhizi (Phakopsora pachyrhizi; applied alone, 2.25 g/ha): 8%
Observed Activity (% of untreated) against Phakopsora pachyrhizi (Phakopsora pachyrhizi; applied alone, 4.5 g/ha): 7%
Observed Activity (% of untreated) against Phakopsora pachyrhizi (Phakopsora pachyrhizi; applied alone, 9 g/ha): 66%

CC(C)C1C2CCC1c1c(NC(=O)c3cn(C)nc3C(F)F)cccc12 (centres unmarked) [isopyrazam]
Activity (%) B (Septoria tritici; 0.1 ppm, 100-0 scale): 50%
Activity (%) B (Septoria tritici; 0.1 ppm, 72 hrs, 100=no disease growth): 50%
Activity (%) B (Septoria tritici; 0.3 ppm, 100-0 scale): 70%
Activity (%) B (Septoria tritici; 0.3 ppm, 72 hrs): 70%

CC(O)(Cn1cncn1)c1ccc(Oc2ccc(Cl)cc2)cc1C(F)(F)F (centres unmarked) [mefentrifluconazole, reference compound]
Observed Activity (% of untreated) against Phakopsora pachyrhizi (Phakopsora pachyrhizi; applied alone, 22.5 g/ha): 1%
Observed Activity (%) (% of untreated) against Phakopsora pachyrhizi (Phakopsora pachyrhizi; applied alone, 22.5 g/ha): 1%
Observed Activity (% of untreated) against Phakopsora pachyrhizi (Phakopsora pachyrhizi; applied alone, 45 g/ha): 20%
Observed Activity (%) (% of untreated) against Phakopsora pachyrhizi (Phakopsora pachyrhizi; applied alone, 45 g/ha): 20%

CO/C=C(/C(=O)OC)c1ccccc1COc1cccc(C(F)(F)F)n1 [picoxystrobin]
Activity (%) B ([1]; 0.1 ppm): 90%
Activity (%) B ([1]; 0.3 ppm): 90%

COC(=O)N(OC)c1ccccc1COc1ccn(-c2ccc(Cl)cc2)n1 [pyraclostrobin, reference compound]
inhibition at 2.25 g/ha (Phakopsora pachyrhizi; active ingredient alone, 2.25 g/ha, read-out: Observed Activity (%) (% of untreated)): 0%
inhibition at 4.5 g/ha (Phakopsora pachyrhizi; active ingredient alone, 4.5 g/ha, read-out: Observed Activity (%) (% of untreated)): 0%
inhibition at 18 g/ha (Phakopsora pachyrhizi; active ingredient alone, 18 g/ha, read-out: Observed Activity (%) (% of untreated)): 13%
inhibition at 2.25 g/ha (Phakopsora pachyrhizi; applied alone, 2.25 g/ha, read-out: Observed Activity (% of untreated) against Phakopsora pachyrhizi): 0%
inhibition at 4.5 g/ha (Phakopsora pachyrhizi; applied alone, 4.5 g/ha, read-out: Observed Activity (% of untreated) against Phakopsora pachyrhizi): 0%
inhibition at 18 g/ha (Phakopsora pachyrhizi; applied alone, 18 g/ha, read-out: Observed Activity (% of untreated) against Phakopsora pachyrhizi): 13%
Observed Activity (% of untreated) against Phakopsora pachyrhizi (Phakopsora pachyrhizi; applied alone, 9 g/ha): 1%

CC1(C)N=C(c2cnc3ccccc3c2)c2ccccc2C1(F)F [quinofumelin]
Activity (%) B (Septoria tritici; 0.1 ppm, 100-0 scale): 0%
Activity (%) B (Septoria tritici; 0.3 ppm, 100-0 scale): 0%

S1SSSSSSS1 [sulphur]
inhibition at 0.1 ppm ([1]; 0.1 ppm): 0%
inhibition at 0.3 ppm ([1]; 0.3 ppm): 0%

Mancozeb
Observed Activity (% of untreated) against Phakopsora pachyrhizi (Phakopsora pachyrhizi; applied alone, 225 g/ha): 20%
Observed Activity (% of untreated) against Phakopsora pachyrhizi (Phakopsora pachyrhizi; applied alone, 450 g/ha): 34%
